Source: PubChem BioAssay (NCI)
Where “and” joins values, the source holds several entries; their conditions need not be identical. Equal values may be shown once.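 Cultured in 96-well plates, cells were exposed to test compound for 48 hours across five concentrations. Abbreviation: GI50, concentration required for 50% inhibition of growth. TGI: concentration producing complete growth inhibition.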

What was measured:
Assay in all cases: DTP human tumour cell line panel, 48 h
SNB-75 CNS = system: SNB-75 CNS
HT29 colon = system: HT29 colon
NCI-H226 lung = system: NCI-H226 lung
U251 CNS = system: U251 CNS
OVCAR-8 ovarian = system: OVCAR-8 ovarian
LOX IMVI melanoma = system: LOX IMVI melanoma
CAKI-1 renal = system: CAKI-1 renal
UACC-257 melanoma = system: UACC-257 melanoma
SR leukemia = system: SR leukemia
COLO 205 colon = system: COLO 205 colon

Compound	GI50 (SNB-75 CNS)	TGI (SNB-75 CNS)	GI50 (HT29 colon)	TGI (HT29 colon)	GI50 (NCI-H226 lung)	TGI (NCI-H226 lung)	GI50 (U251 CNS)	TGI (U251 CNS)	GI50 (OVCAR-8 ovarian)	TGI (OVCAR-8 ovarian)	GI50 (LOX IMVI melanoma)	TGI (LOX IMVI melanoma)	GI50 (CAKI-1 renal)	TGI (CAKI-1 renal)	GI50 (UACC-257 melanoma)	TGI (UACC-257 melanoma)	GI50 (SR leukemia)	TGI (SR leukemia)	GI50 (COLO 205 colon)	TGI (COLO 205 colon)
CO/N=C(/COc1c(-c2ccccc2)oc2ccccc2c1=O)c1ccc(OC)cc1	58.7 µM	> 100 µM	51.6 µM	> 100 µM	> 100 µM	> 100 µM	> 100 µM	> 100 µM	> 100 µM	> 100 µM	> 100 µM	> 100 µM	> 100 µM	> 100 µM	> 100 µM	> 100 µM	9.1 µM	53.4 µM	> 100 µM	> 100 µM
Cc1ccccc1-c1c(N)nc(N)nc1C(=O)Nc1nccs1		> 100 µM		> 100 µM		> 100 µM		> 100 µM		> 100 µM		> 100 µM		> 100 µM		> 100 µM		> 100 µM		> 100 µM
O=C(O)C[O][Sb][O]CC(=O)O	> 100 µM	> 100 µM	> 100 µM	> 100 µM	> 100 µM	> 100 µM	> 100 µM	> 100 µM	> 100 µM	> 100 µM	> 100 µM	> 100 µM	> 100 µM	> 100 µM			> 100 µM	> 100 µM		
CC(C)(C)OC(=O)NC1CCC[C@H]1O (stereo partly drawn)		> 100 µM		> 100 µM		> 100 µM		> 100 µM		> 100 µM		> 100 µM		> 100 µM		> 100 µM		> 100 µM		
CC(=O)Nc1ccccc1-c1cnc2ccccc2n1		> 100 µM		> 100 µM		> 100 µM		> 100 µM		> 100 µM		> 100 µM		> 100 µM		> 100 µM		> 100 µM		> 100 µM
Nc1ncnc2c(C3OC(CO)C(O)C3O)[nH]nc12 (stereo not drawn)		5.29 µM and 1.25 µM		10.5 µM and 4.62 µM	0.529 µM and 0.793 µM	5.83 µM and 10.7 µM	1.39 µM	25.4 µM	0.0375 µM and 0.0527 µM	0.624 µM and 0.713 µM	0.147 µM	2.22 µM and 0.4 µM	0.0365 µM and 0.061 µM	0.281 µM and 0.214 µM	1.45 µM and 2.1 µM	10.2 µM and 26.6 µM	0.0347 µM		2.99 µM	15.7 µM and 11.7 µM
Cc1cc2c3ccccc3ccc2[n+]2ccccc12	4.66 µM	> 33.7 µM	9.19 µM	41.1 µM	3.14 µM	23.7 µM	1.06 µM	10.1 µM	2.43 µM	21.9 µM	21.5 µM	91.6 µM	> 28 µM	> 100 µM	6.17 µM	27.5 µM	2.25 µM	12.9 µM	1.95 µM	8.31 µM
N#Cc1cccc(/C=C(/C(=O)c2ccccc2)c2ccccc2)c1	4.69 µM	17.5 µM	4.23 µM	15 µM	6.45 µM	26.7 µM	3.43 µM	12.5 µM	2.97 µM	25.5 µM	2.89 µM	10.2 µM	3.92 µM	16.1 µM	4.05 µM	18.2 µM	2.94 µM	> 100 µM	5.3 µM	20 µM
CC(=O)OC1C/C(C)=C/CCC(C)/C=C/C2(C)CCC(C(C)(C)O)C12 (stereo not drawn)		> 100 µM		> 100 µM		> 100 µM		> 100 µM		> 100 µM		> 100 µM		> 100 µM		> 100 µM		47.2 µM		> 100 µM
O=C1[C@@H]2C3SC(c4ccccc43)[C@@H]2C(=O)N1c1ccccc1		> 83 µM		> 100 µM		> 100 µM		> 100 µM		> 100 µM		> 100 µM		> 100 µM		> 100 µM		> 100 µM		> 100 µM
CC(=O)C1C(=O)C(=O)N(c2ccccc2N2C(=O)C(=O)C(C(C)=O)C2=O)C1=O (stereo not drawn)		> 100 µM		> 100 µM		> 100 µM		> 100 µM		> 100 µM		> 100 µM		> 100 µM		> 100 µM		> 100 µM		> 100 µM
Nc1ncnc2c(C3OC(CO)C(O)C3O)scc12 (stereo not drawn)		5.5 µM		1.12 µM		0.731 µM	2.45 µM	> 100 µM			0.0233 µM	1.49 µM and 2 µM			1.11 µM		0.0621 µM	2.49 µM		1.15 µM and 1.23 µM
COc1ccc2[nH]c(=O)c(/C=C/C(=O)/C=C/c3ccc(O)c(OC)c3)cc2c1	2.96 µM	14.4 µM	0.777 µM	2.12 µM	2.14 µM	6.07 µM	1.17 µM	2.68 µM	1.52 µM	11.5 µM	1.54 µM	3.18 µM	1.71 µM	3.1 µM	1.58 µM	3.09 µM	0.381 µM	> 100 µM	1.6 µM	3.81 µM
c1ccc(-c2nnc(Nc3ccc4c(c3)OCCO4)o2)c(NCc2ccncc2)c1	0.0125 µM	12.1 µM	0.0321 µM	1.75 µM	0.0264 µM	0.106 µM	0.0369 µM	> 35.5 µM	0.0419 µM	> 42.2 µM	0.0459 µM	> 100 µM	0.16 µM	> 100 µM	3.97 µM	> 62.4 µM	< 0.01 µM	> 46.5 µM	0.0286 µM	0.076 µM
CCCCCCCCCCCC[n+]1ccccc1	1.16 µM	4.05 µM	0.381 µM	5.47 µM	1.44 µM	8.83 µM	0.997 µM	2.44 µM	1.03 µM	5.28 µM	1.17 µM	2.72 µM			1.23 µM	3.97 µM	0.202 µM	2.15 µM	0.868 µM	2.66 µM
Nc1ccn(C2CC(O)C(CO)O2)c(=O)n1 (stereo not drawn)	> 5000 µM	> 5000 µM	> 5000 µM	> 5000 µM	> 5000 µM	> 5000 µM	> 5000 µM	> 5000 µM	> 5000 µM	> 5000 µM	> 5000 µM	> 5000 µM	> 5000 µM	> 5000 µM	> 5000 µM	> 5000 µM	> 5000 µM	> 5000 µM	> 5000 µM	> 5000 µM
COc1cc2c(c(OC)c1OC)-c1ccc(SC)c(=O)cc1[C@@H](NCc1cccc(C#N)c1)CC2		0.0568 µM	< 0.0075 µM	0.0348 µM and < 0.0075 µM	< 0.0075 µM	0.0545 µM and < 0.0075 µM		0.0434 µM	< 0.0075 µM		< 0.0075 µM	16.6 µM		> 75 µM	6.18 µM	> 75 µM		12.2 µM	< 0.0075 µM	0.0593 µM and < 0.0075 µM
COc1cc2nc(N3CCCC3)nc(Nc3ccccc3)c2cc1OC	1.39 µM	2.7 µM	1.34 µM	3.11 µM	1.97 µM	4.12 µM	1.02 µM	2.45 µM	1.54 µM	5.06 µM	0.201 µM	0.479 µM	1.45 µM	2.8 µM	1.86 µM	3.79 µM	0.234 µM	1.26 µM	1.3 µM	3.96 µM
NCCCC1NC(=O)/C(=C(O)/C=C/C2CCC[C@@H]2CC2SCCS2)C1=O (stereo partly drawn)		> 100 µM		> 100 µM		> 100 µM		> 100 µM		> 100 µM		> 100 µM				> 100 µM		> 100 µM		> 100 µM
Cc1ccc(C2(O)CC(c3ccc([N+](=O)[O-])o3)=NN2C(=O)COc2ccccc2Cl)cc1 (stereo not drawn)		> 75.4 µM		> 42 µM		> 100 µM		28.2 µM		> 100 µM		18.9 µM		> 100 µM		53.6 µM		23.1 µM		24.1 µM
O=C(O)c1ccc(NCc2nc3cc4ccccc4cc3[nH]2)cc1		> 100 µM		> 100 µM		> 100 µM		> 100 µM		> 100 µM		> 100 µM		> 100 µM		25.9 µM		> 100 µM		> 100 µM
N#CCN1CCOCCOCCN(CC#N)CCOCCOCC1		> 100 µM		> 100 µM		> 100 µM				> 100 µM		> 100 µM		> 100 µM		> 100 µM		> 100 µM		> 100 µM
O=C(/C=C/c1ccccc1O)c1cccnc1		> 100 µM		> 100 µM		> 100 µM		> 100 µM		> 100 µM		> 100 µM		> 100 µM		> 100 µM		> 100 µM		
CC1(C)CC(=O)c2c(ccc(C(=O)C[C@H](N)CO)c2N)O1	> 17.5 µM and 3.1 µM	> 33.3 µM		17.5 µM and > 33.3 µM		17.5 µM and 23.7 µM	1.47 µM and 0.247 µM	17.5 µM and > 33.3 µM	5.68 µM and 2.17 µM	17.5 µM and > 33.3 µM			3.27 µM and 0.447 µM	17.5 µM and 6.03 µM	20.3 µM	> 33.3 µM	0.612 µM and 0.0752 µM		4.92 µM and 2.07 µM	17.5 µM and > 33.3 µM
